Measurements taken from ChEMBL document CHEMBL2380306 (Bioorg Med Chem Lett, 2013).
Values after ≈ are worked out from the molar mass of the structure shown. Values belong to the compound of their own block, whether it stands above or below them.

Legend:
physchem = settings: buffer, pH 7.4
[1] = Aqueous kinetic solubility of the compound at pH 6.5; assay type: physicochemical; settings: read-out: Kinetic_solubility
[2] = Apparent permeability across MDCK2 cells; assay type: ADME, cell-based, Canis lupus familiaris, MDCK-II; settings: dog, MDCK
[3] = Drug excretion in Wistar-Han rat bile at 5 mg/kg, iv; assay type: ADME, organism-based; set-up: dose 5 mg/kg, route intravenous; settings: read-out: Drug excretion
[4] = Oral bioavailability in Wistar-Han rat at 5 mg/kg; assay type: ADME, organism-based; settings: in vivo
[5] = Oral bioavailability in Beagle dog at 4 mg/kg; assay type: ADME, organism-based, Canis lupus familiaris; settings: in vivo
[6] = Oral bioavailability in Beagle dog at 5 mg/kg; assay type: ADME, organism-based, Canis lupus familiaris; settings: in vivo
[7] = Apparent permeability across human Caco2 cells at pH 6.5; assay type: ADME, cell-based; settings: Caco-2, pH 6.5
[8] = Apparent permeability across human Caco2 cells at pH 7.4; assay type: ADME, cell-based; settings: Caco-2, pH 7.4
[9] = Oral bioavailability in Wistar-Han rat at 50 mg/kg; assay type: ADME, organism-based; settings: in vivo
[10] = Volume of distribution at steady state in Beagle dog at 0.5 mg/kg, iv and 5 mg/kg, po; assay type: ADME, organism-based, Canis lupus familiaris; settings: in vivo, read-out: Vdss
[11] = Volume of distribution at steady state in Wistar-Han rat at 1 mg/kg, iv and 50 mg/kg, po; assay type: ADME, organism-based; settings: in vivo, read-out: Vdss

Structure (SMILES): CCC[C@@H](Oc1cc(C)c(-n2cc(C(F)(F)F)cn2)c(C)c1)c1ccc(C(=O)NCCC(=O)O)cc1
- logD (physchem): 2.7

Structure (SMILES): CCCC(Nc1ccc(-n2cnc(C(F)(F)F)c2)cc1)c1ccc(C(=O)NCCC(=O)O)cc1 (racemic)
- logD (physchem): 1.3
- solubility kinetic [1]: 350 µM (≈ 166 µg/mL)
- Papp [2]: 0.6 ×10⁻⁶ cm/s

Structure (SMILES): CCCC(Nc1ccc(-n2cc(C(F)(F)F)cn2)cc1)c1ccc(C(=O)NCCC(=O)O)cc1 (racemic)
- logD (physchem): 1.9
- solubility kinetic [1]: 350 µM (≈ 166 µg/mL)
- Papp [2]: 4 ×10⁻⁶ cm/s

Structure (SMILES): CCCC(Nc1ccc(-n2cc(C(F)(F)F)cn2)nc1)c1ccc(C(=O)NCCC(=O)O)cc1 (racemic)
- logD (physchem): 2.1
- Papp [2]: 4.6 ×10⁻⁶ cm/s

Structure (SMILES): CCCC(Nc1cnc(-n2cc(C(F)(F)F)cn2)nc1)c1ccc(C(=O)NCCC(=O)O)cc1 (racemic)
- logD (physchem): 1.3
- solubility kinetic [1]: 380 µM (≈ 181 µg/mL)
- Papp [2]: 0.8 ×10⁻⁶ cm/s

Structure (SMILES): CCCC(Nc1ccc(-n2cc(C(F)(F)F)cn2)cn1)c1ccc(C(=O)NCCC(=O)O)cc1 (racemic)
- logD (physchem): 1.3
- Papp [2]: 0.8 ×10⁻⁶ cm/s

Structure (SMILES): CCCC(Nc1cc(C)c(-n2cc(C(F)(F)F)cn2)c(C)c1)c1ccc(C(=O)NCCC(=O)O)cc1 (racemic)
- logD (physchem): 2.2
- Papp [2]: 2.7 ×10⁻⁶ cm/s

Structure (SMILES): CCCC(Oc1ccc(-n2cc(C(F)(F)F)cn2)nc1)c1ccc(C(=O)NCCC(=O)O)cc1 (racemic)
- logD (physchem): 2.6
- Papp [2]: 3.4 ×10⁻⁶ cm/s

Structure (SMILES): CCCC(Oc1cnc(-n2cc(C(F)(F)F)cn2)nc1)c1ccc(C(=O)NCCC(=O)O)cc1 (racemic)
- logD (physchem): 1.5

Structure (SMILES): O=C(O)CCNC(=O)c1ccc(C(Oc2ccc(-n3cc(C(F)(F)F)cn3)cc2)C2CCC2)cc1 (racemic)
- logD (physchem): 2.6

Structure (SMILES): CC(C)CC(Oc1ccc(-n2cc(C(F)(F)F)cn2)cc1)c1ccc(C(=O)NCCC(=O)O)cc1 (racemic)
- logD (physchem): 3.2

Structure (SMILES): O=C(O)CCNC(=O)c1ccc(C(Oc2ccc(-n3cc(C(F)(F)F)cn3)cc2)C2CCCC2)cc1 (racemic)
- logD (physchem): 3.3

Structure (SMILES): CC(C)(C)C(Oc1ccc(-n2cc(C(F)(F)F)cn2)cc1)c1ccc(C(=O)NCCC(=O)O)cc1 (racemic)
- logD (physchem): 3.7

Structure (SMILES): CC(C)C(Oc1ccc(-n2cc(C(F)(F)F)cn2)cc1)c1ccc(C(=O)NCCC(=O)O)cc1 (racemic)
- logD (physchem): 2.6

Structure (SMILES): O=C(O)CCNC(=O)c1ccc(C(Oc2ccc(-n3cc(C(F)(F)F)cn3)cc2)C2CC2)cc1 (racemic)
- logD (physchem): 1.7

Structure (SMILES): CCCC(Oc1cc(C)c(-n2cc(C(F)(F)F)cn2)c(C)c1)c1ccc(C(=O)NCCC(=O)O)cc1 (racemic)
- logD (physchem): 2.6

Structure (SMILES): CCCC(Oc1ccc(-n2cc(C(F)(F)F)cn2)c(C)c1)c1ccc(C(=O)NCCC(=O)O)cc1 (racemic)
- logD (physchem): 2.6

Structure (SMILES): CCCC(Nc1ccc(-n2cnc(C(F)(F)F)c2)cc1)c1ccc(C(=O)NCCC(=O)O)cc1 (single isomer, unassigned)
- dose excreted [3]: 57%

Structure (SMILES): CCC[C@H](c1ccc(C(=O)NCCC(=O)O)cc1)[C@H](c1ccc(Cl)cc1)c1c[nH]c2c(F)cc(C)cc12 [MK-3577]
- bioavailability [4]: 7%
- solubility kinetic [1]: 23 µM (≈ 12 µg/mL)
- bioavailability [5]: 30%

Structure (SMILES): CCC[C@H](Oc1cc(C)c(-n2cc(C(F)(F)F)cn2)c(C)c1)c1ccc(C(=O)NCCC(=O)O)cc1 [PF-06291874]
- bioavailability [6]: 100%
- logD (physchem): 2.5
- Papp [7]: 30 ×10⁻⁶ cm/s
- Papp [8]: 8.5 ×10⁻⁶ cm/s
- bioavailability [9]: 100%
- Vd [10]: 0.31 L/kg
- Vd [11]: 0.4 L/kg
- Papp [2]: 3.6 ×10⁻⁶ cm/s

Now from value to compound:

- logD (physchem): 2.4
- solubility kinetic [1]: 400 µM (≈ 190 µg/mL)
- Papp [2]: 3.1 ×10⁻⁶ cm/s
Structure (SMILES): CCCC(Oc1ccc(-n2cc(C(F)(F)F)cn2)cc1)c1ccc(C(=O)NCCC(=O)O)cc1 (racemic)

- logD (physchem): 2.5
Structure (SMILES): CCCC(Oc1ccc(-n2cc3ccccc3n2)cc1)c1ccc(C(=O)NCCC(=O)O)cc1 (racemic)

- Papp [2]: 2.3 ×10⁻⁶ cm/s
Structure (SMILES): CCCC(Oc1ccc(-n2cnc(C(F)(F)F)c2)cc1)c1ccc(C(=O)NCCC(=O)O)cc1 (racemic)

- logD (physchem): 1.9
Structure (SMILES): CCC(Oc1ccc(-n2cc(C(F)(F)F)cn2)cc1)c1ccc(C(=O)NCCC(=O)O)cc1 (racemic)

- logD (physchem): 2.6
- solubility kinetic [1]: 70 µM (≈ 30.9 µg/mL)
Structure (SMILES): CCCC(Oc1ccc(-n2cc(Cl)cn2)cc1)c1ccc(C(=O)NCCC(=O)O)cc1 (racemic)

- logD (physchem): 2.1
Structure (SMILES): CCCC(Oc1ccc(-n2cc(C)cn2)cc1)c1ccc(C(=O)NCCC(=O)O)cc1 (racemic)

- logD (physchem): 2
Structure (SMILES): CCCC(Oc1ccc(-n2cc(F)cn2)cc1)c1ccc(C(=O)NCCC(=O)O)cc1 (racemic)

- logD (physchem): 1.7
Structure (SMILES): CCCC(Oc1ccc(-n2cccn2)cc1)c1ccc(C(=O)NCCC(=O)O)cc1 (racemic)

- logD (physchem): 1.2
Structure (SMILES): CCCC(Oc1ccc(-n2cc(C#N)cn2)cc1)c1ccc(C(=O)NCCC(=O)O)cc1 (racemic)

- logD (physchem): 1.4
Structure (SMILES): CCCC(Oc1ccc(-n2cc(OC)cn2)cc1)c1ccc(C(=O)NCCC(=O)O)cc1 (racemic)

- logD (physchem): 0.5
Structure (SMILES): CCCC(Oc1ccc(-n2cc(C(=O)N(C)C)cn2)cc1)c1ccc(C(=O)NCCC(=O)O)cc1 (racemic)

- logD (physchem): 2.8
Structure (SMILES): CCCC(Oc1ccc(-n2cc(C(F)(F)F)c(C)n2)cc1)c1ccc(C(=O)NCCC(=O)O)cc1 (racemic)

- logD (physchem): 2.7
Structure (SMILES): CCCC(Oc1ccc(-n2cc3c(n2)CCCC3)cc1)c1ccc(C(=O)NCCC(=O)O)cc1 (racemic)

- bioavailability [4]: 60%
Structure (SMILES): CCCC(Oc1ccc(-n2cc(C(F)(F)F)cn2)cc1)c1ccc(C(=O)NCCC(=O)O)cc1 (single isomer, unassigned)

- bioavailability [4]: 3%
- Papp [2]: 2.2 ×10⁻⁶ cm/s
Structure (SMILES): CCCC(Oc1ccc(-n2cc3ccccc3n2)cc1)c1ccc(C(=O)NCCC(=O)O)cc1 (single isomer, unassigned)
